This assay relates to Phytophthora infestans. In kind it is in vivo. Conditions: single active ingredient, tomato leaves, infected next day, evaluated after 6 days.

From US20020042437A1 (priority 1997, published 2002) come the findings set out here.

Like-named read-outs stand apart in the source and are kept apart here.

Take `CCC(C)(NC(=O)c1cc(Cl)c(C)c(Cl)c1)C(=O)CCl` (stereo not drawn) [Compound II.1]: the “Efficacy in % of the untreated control” value (0.25 ppm in the spray liquor) is given as 0% and the “Efficacy in % of the untreated control” value (0.5 ppm in the spray liquor) was found to be 20%.

As to `CO/N=C(/C(=O)OC)c1ccccc1COc1ccccc1C` [Ia], the “Efficacy in % of the untreated control” value by setting is: (0.25 ppm in the spray liquor) 0%; (0.5 ppm in the spray liquor) 0%; (1 ppm in the spray liquor) 0%.

Turning to `CNC(=O)/C(=N/OC)c1ccccc1COc1cc(C)ccc1C` [Ib], the “Efficacy in % of the untreated control” value (0.25 ppm in the spray liquor) was determined as 0%.
